The values that follow come from PMC3433743 (Bioorganic & medicinal chemistry letters, 2012).

The conditions of data set [1]: cited from earlier work.
A further data set deals with LRRK2[A2016T] (Homo sapiens, UniProt Q5S007, A2016T). Nature of the data set: LRRK2 enzymatic assay, A2016T mutant. As to conditions: biochemical, Fig. 1.
A further data set concerns the target CHK2 (Homo sapiens, UniProt O96017). Nature of the data set: Radioactivity-based enzymatic kinase panel. As to conditions: read-out: Inhibition of kinase activity.
A further data set deals with PHKã1(PBK) (Homo sapiens, UniProt Q16816). As to the kind of experiment: Radioactivity-based enzymatic kinase panel. As to conditions: read-out: Inhibition of kinase activity.
The target in another data set is CAMKKβ (Homo sapiens, UniProt Q96RR4). As to the kind of experiment: Radioactivity-based enzymatic kinase panel. The note with it: read-out: Inhibition of kinase activity.
Another data set addresses endogenous LRRK2 (Mus musculus, UniProt Q5S006). The format is in vivo.
The next data set has as its target T1, NUAK1 (Homo sapiens, UniProt O60285).
T1 sequence (O60285 1-661): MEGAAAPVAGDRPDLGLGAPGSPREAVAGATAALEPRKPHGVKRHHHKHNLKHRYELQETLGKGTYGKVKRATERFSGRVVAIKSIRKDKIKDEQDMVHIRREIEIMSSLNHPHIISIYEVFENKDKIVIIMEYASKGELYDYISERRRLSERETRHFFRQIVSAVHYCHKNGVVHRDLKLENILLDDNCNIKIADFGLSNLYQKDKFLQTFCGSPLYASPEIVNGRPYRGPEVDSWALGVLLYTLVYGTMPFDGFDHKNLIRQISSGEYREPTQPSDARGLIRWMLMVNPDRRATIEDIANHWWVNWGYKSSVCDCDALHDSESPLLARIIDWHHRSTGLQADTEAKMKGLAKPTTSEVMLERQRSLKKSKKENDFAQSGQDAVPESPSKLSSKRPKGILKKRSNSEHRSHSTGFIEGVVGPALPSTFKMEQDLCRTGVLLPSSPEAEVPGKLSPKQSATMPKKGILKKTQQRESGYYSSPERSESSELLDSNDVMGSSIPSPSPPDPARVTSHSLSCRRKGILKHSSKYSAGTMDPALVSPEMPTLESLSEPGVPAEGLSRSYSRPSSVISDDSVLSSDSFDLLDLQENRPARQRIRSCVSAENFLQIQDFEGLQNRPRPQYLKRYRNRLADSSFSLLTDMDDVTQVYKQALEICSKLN
As to the kind of experiment: Radioactivity-based enzymatic kinase panel. As to conditions: read-out: Inhibition of kinase activity.

The target in a further data set is GFP-LRRK2[A2016T] (Homo sapiens, UniProt Q5S007, A2016T). In kind it is cell-based. As to conditions: HEK293, LRRK2[A2016T], 90 min.
Chain of GFP-LRRK2[A2016T] (Q5S007 whole entry A2016T): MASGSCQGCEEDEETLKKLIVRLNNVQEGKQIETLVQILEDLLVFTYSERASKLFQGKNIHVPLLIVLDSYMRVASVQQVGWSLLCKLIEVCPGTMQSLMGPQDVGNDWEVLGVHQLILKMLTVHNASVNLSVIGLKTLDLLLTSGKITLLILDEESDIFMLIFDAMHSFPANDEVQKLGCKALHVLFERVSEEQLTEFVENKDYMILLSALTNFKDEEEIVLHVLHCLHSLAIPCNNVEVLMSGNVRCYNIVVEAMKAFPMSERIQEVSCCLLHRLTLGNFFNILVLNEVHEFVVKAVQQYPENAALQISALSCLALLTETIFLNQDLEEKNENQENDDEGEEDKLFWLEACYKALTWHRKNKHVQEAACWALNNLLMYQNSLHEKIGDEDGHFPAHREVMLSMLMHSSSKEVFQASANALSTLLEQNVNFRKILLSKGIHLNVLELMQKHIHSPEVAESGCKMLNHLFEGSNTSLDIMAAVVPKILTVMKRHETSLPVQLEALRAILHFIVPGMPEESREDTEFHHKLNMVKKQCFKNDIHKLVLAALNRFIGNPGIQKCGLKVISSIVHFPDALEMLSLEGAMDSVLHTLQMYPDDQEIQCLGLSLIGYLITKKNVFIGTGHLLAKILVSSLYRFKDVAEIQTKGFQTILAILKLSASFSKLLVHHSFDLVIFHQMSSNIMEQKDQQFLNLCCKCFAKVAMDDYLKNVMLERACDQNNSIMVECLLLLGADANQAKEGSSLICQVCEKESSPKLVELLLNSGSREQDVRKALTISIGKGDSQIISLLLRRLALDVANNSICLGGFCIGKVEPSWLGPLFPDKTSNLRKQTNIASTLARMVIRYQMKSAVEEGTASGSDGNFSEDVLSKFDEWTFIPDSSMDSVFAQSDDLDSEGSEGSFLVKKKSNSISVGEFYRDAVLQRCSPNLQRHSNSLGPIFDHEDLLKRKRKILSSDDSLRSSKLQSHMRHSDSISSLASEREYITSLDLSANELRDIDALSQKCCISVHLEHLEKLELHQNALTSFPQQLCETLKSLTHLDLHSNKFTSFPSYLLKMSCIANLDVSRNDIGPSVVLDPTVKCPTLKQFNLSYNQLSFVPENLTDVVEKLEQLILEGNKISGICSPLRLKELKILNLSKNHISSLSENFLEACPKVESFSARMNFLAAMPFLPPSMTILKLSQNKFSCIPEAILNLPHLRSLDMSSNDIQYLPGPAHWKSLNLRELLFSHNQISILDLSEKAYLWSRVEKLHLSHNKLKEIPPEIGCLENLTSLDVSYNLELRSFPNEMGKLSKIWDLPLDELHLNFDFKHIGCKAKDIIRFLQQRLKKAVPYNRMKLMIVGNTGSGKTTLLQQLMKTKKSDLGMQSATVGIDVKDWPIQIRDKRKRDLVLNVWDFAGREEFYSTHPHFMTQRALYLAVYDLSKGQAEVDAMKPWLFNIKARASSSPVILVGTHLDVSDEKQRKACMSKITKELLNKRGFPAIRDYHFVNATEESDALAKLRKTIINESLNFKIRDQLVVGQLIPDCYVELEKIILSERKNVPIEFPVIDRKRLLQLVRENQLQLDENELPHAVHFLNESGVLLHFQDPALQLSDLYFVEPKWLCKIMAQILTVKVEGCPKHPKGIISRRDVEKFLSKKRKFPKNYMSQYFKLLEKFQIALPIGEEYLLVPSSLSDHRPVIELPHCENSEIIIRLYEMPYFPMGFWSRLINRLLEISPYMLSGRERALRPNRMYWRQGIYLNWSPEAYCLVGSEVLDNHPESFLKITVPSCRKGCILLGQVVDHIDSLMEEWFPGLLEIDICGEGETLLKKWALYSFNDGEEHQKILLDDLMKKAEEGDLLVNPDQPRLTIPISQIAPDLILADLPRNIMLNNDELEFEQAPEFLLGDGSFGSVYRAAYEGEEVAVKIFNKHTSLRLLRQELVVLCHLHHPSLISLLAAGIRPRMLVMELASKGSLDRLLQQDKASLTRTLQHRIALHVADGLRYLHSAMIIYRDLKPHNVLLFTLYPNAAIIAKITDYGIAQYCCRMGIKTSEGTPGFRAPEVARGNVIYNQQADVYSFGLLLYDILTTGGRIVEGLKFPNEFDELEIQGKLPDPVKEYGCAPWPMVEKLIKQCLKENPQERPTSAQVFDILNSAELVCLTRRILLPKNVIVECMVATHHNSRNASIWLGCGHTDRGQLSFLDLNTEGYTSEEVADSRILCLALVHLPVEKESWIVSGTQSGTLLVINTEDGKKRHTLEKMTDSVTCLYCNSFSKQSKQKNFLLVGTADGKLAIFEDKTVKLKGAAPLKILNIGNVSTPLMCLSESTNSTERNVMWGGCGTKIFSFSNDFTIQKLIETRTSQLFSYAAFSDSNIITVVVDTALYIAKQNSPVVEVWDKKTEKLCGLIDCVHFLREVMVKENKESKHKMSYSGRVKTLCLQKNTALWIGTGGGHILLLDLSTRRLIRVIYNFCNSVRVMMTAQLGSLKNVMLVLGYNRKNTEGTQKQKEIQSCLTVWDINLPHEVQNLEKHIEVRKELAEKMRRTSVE
The next data set has as its target T2, TSSK1 (Homo sapiens, UniProt Q9BXA7).
T2 sequence (Q9BXA7 1-367): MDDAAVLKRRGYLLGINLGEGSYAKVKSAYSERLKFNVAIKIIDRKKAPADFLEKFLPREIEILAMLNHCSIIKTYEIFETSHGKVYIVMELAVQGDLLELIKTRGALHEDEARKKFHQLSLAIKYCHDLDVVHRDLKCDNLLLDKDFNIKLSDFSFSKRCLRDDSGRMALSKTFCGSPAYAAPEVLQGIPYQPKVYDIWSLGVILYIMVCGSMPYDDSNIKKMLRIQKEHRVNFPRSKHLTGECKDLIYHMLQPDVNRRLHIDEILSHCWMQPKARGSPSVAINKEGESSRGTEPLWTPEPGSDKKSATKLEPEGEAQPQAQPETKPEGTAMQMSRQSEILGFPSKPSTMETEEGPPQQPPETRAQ
As to the kind of experiment: Radioactivity-based enzymatic kinase panel. As to conditions: read-out: Inhibition of kinase activity.

SMILES strings stand for the structures. Entries after “also recorded” stand apart in the source; their conditions may differ. Read-outs that look alike come from different tables or passages of the source.

Chain of LRRK2[A2016T] (Q5S007 whole entry A2016T): as the sequence (Q5S007 whole entry A2016T) above
Chain of endogenous LRRK2 (Q5S006 whole entry): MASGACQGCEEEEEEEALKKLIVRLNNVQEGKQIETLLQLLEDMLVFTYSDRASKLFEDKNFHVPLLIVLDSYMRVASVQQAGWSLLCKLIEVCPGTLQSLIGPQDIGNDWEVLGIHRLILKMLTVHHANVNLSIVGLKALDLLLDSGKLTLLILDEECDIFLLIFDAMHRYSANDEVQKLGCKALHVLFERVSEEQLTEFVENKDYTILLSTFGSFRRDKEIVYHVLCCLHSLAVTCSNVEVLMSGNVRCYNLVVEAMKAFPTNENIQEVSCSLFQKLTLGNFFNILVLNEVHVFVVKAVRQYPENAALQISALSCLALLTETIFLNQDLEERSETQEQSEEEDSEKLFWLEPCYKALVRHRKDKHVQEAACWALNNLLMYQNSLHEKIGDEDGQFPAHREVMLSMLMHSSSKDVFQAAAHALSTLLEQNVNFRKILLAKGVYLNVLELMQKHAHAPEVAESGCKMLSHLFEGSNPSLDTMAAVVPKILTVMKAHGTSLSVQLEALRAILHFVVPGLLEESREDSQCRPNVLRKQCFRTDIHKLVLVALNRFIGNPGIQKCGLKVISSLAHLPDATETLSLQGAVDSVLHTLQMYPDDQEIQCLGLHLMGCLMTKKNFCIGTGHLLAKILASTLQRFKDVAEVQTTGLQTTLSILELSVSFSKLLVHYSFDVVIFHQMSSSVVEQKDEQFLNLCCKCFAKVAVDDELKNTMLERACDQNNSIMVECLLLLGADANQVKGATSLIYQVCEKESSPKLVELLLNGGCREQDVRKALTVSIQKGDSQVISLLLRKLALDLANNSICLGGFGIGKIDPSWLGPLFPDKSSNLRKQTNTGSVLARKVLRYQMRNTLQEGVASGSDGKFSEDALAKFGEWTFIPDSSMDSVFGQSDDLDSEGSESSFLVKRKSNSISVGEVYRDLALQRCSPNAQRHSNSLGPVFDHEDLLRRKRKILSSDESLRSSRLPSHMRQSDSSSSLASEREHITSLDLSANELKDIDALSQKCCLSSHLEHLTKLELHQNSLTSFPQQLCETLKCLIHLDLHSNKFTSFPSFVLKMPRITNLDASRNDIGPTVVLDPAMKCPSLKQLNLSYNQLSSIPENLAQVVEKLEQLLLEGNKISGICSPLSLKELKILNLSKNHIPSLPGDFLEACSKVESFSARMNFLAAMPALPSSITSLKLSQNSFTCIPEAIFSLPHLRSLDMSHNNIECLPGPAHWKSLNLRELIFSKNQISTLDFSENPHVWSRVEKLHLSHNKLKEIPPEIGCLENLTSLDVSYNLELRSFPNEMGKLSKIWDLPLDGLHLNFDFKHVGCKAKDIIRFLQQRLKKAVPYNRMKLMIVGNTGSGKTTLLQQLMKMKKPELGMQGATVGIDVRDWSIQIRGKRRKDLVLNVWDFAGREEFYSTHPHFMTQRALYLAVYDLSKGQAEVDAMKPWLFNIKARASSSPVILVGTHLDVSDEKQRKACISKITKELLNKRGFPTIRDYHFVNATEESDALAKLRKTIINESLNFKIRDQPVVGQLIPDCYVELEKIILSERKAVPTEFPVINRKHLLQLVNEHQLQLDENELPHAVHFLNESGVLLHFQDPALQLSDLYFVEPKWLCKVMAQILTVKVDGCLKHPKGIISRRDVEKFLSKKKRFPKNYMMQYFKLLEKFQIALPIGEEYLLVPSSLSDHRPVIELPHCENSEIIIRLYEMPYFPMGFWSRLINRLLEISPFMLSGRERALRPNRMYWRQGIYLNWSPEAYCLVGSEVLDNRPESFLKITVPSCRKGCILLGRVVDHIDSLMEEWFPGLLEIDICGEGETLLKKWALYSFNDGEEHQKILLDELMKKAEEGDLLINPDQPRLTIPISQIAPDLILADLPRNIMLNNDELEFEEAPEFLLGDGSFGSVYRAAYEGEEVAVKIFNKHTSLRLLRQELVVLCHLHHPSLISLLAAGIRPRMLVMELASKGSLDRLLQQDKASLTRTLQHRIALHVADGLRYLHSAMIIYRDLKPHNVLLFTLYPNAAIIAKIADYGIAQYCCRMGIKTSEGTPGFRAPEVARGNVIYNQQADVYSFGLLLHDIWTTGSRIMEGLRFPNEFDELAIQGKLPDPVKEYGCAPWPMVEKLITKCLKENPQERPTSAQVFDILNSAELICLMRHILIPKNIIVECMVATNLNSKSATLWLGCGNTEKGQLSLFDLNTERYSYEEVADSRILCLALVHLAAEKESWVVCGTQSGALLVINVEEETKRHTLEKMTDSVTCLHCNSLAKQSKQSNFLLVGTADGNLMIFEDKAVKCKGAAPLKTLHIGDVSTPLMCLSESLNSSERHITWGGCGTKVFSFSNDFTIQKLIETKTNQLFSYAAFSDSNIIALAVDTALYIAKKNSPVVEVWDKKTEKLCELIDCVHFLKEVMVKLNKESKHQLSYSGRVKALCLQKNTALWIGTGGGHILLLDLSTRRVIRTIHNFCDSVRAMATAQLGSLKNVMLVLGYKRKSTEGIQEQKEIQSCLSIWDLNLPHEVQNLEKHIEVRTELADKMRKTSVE

Take `COc1cc(N2CCOCC2)ccc1Nc1ncc(F)c(Nc2ccccc2NS(C)(=O)=O)n1` [CZC-25146]: the “Exposure in mouse brains” value in [1] is “neither compound is able to achieve good exposure in mouse brains”.
For the molecule `COc1cc(C(=O)N2CCC(N3CCN(C)CC3)CC2)ccc1Nc1ncc2c(n1)N(C)c1ccccc1C(=O)N2C` [LRRK2-IN-1], in data set [1], the “Exposure in mouse brains” value is on record as “neither compound is able to achieve good exposure in mouse brains”. Also, on LRRK2[A2016T], the “Inhibition of the A2016T mutant” value is on record as “dramatic resistance”.
In the case of `COc1cc(N2CCC(N3CCN(C)CC3)CC2)ccc1Nc1ncc(Cl)c(Nc2ccccc2S(=O)(=O)C(C)C)n1` [TAE684, 5-chloro-N4-(2-(isopropylsulfonyl)phenyl)-N2-(2-methoxy-4-(4-(4-methyl-piperazin-1-yl)piperidin-1-yl)phenyl)pyrimidine-2,4-diamine], the inhibition at 1 µM on CHK2, at PHKã1(PBK), at CAMKKβ, at NUAK1 and at TSSK1 was more than 90% in each case. Moreover, the “Ser910 and Ser935 dephosphorylation of LRRK2 in kidney and spleen” value on endogenous LRRK2 (oral gavage 10 mg/kg, 10 mg/kg) was “slightly lower effect; also recorded: substantially inhibits”; on endogenous LRRK2 (oral gavage 50 mg/kg), “complete Ser910 and Ser935 dephosphorylation”. At endogenous LRRK2 (oral gavage 10 or 50 mg/kg), the “Inhibition of LRRK2 Ser910 or Ser935 phosphorylation in the brain” value is on record as “no inhibition; also recorded: does not inhibit phosphorylation; also recorded: not in brain”. Also, the “Concentration inducing dephosphorylation of Ser910 and 935” value at GFP-LRRK2[A2016T] lay within 1 to 3 µM. Further, at LRRK2[A2016T], the “Inhibition of the A2016T mutant” value was “relatively insensitive to the A2016T mutation; also recorded: maintains significant inhibition”.
